Like-named read-outs stand apart in the source and are kept apart here.
Tests used:
U2OS cells = experiment: Clonogenic rescue experiment in Sp1-depleted U2OS cells exposed to H2O2; type: cell-based, human; conditions: H2O2 for one hour, colonies counted after 11 days
Method: In the case of the rescue experiment, U2OS cells were transfected with siRNA and replated 72 hours later. The cells were then transfected with WT Sp1 or Sp1-101A and 48 hours later cells were exposed to H2O2 and re-seeded onto 60 mm dishes. Colonies were fixed and stained in crystal violet 11 days after plating and then counted.

ATM kinase activity = experiment: Indirect immunofluorescence for γSp1^101 and phospho-ATMs1981 in UV-exposed U2OS cells; type: cell-based, human; conditions: 0.5 J/m^2 UV, pre-treated with 10 μM KU55933
Method: U2OS cells were plated onto glass coverslips 24-36 hours before treatment. […] U2OS cells were washed in ice-cold PBS twice and pre-extracted in 0.2% Triton X-100/30% ddH2O/20 mM PMSF in PBS for 5 minutes at 4° C. Cells were then washed with PBS and fixed in 2% Para-formaldehyde/3% sucrose in PBS for 10 minutes at room temperature. Cells were washed twice in PBS at room temperature then permeablized in 0.5% Triton X-100 in PBS for 5 minutes at 4° C. Cells were washed 2 times in room temperature PBST (0.1% Tween 20, 0.02% Sodium azide in PBS) and incubated in primary antibody overnight at 4° C., mouse monoclonal γH2AX (ser139, Upstate Biotechnology), diluted 1:1000 in PBST solution, mouse P-ATMser1981 (Cell Signalling, diluted 1:1000) or rabbit polyclonal γSp1^101 (diluted 1:500, 21st Century Biotechnology). Cells were washed in PBST three times followed by the addition of secondary antibody, AlexaFlour488 donkey anti-rabbit, diluted 1:1000 in PBST and AlexaFlour594 donkey anti-mouse antibody, diluted 1:1000 in PBST for 1 hours in the dark. Cells were washed 4 times with PBST. Slides were mounted using Vectashield mounting medium containing DAPI (Vector Labs).

ATM = ATM (Homo sapiens, UniProt Q13315); conditions: Hickson et al. 2004; cited from earlier work
[1] = tested on: Phosphorylation of Sp1 and H2AX; experiment: Immunoblot of H2O2-induced Sp1 and H2AX phosphorylation in NHDFs pretreated with wortmannin or KU55933; type: cell-based, human; conditions: 200 μM H2O2, pre-treatment with 10 μM KU55933
[2] = type: cell-based, human; conditions: U2OS, 10 μM ATM inhibitor, 200 μM H2O2
[3] = tested on: Sp1 phosphorylation at serine 101; type: cell-based, human; conditions: U2OS, 10 μM ATM inhibitor
Sp1 phosphorylation [4] = conditions: fibroblasts with wild-type ATM, one hour exposure
Sp1 phosphorylation [5] = conditions: NHDFs

Chain of ATM (Q13315 whole entry): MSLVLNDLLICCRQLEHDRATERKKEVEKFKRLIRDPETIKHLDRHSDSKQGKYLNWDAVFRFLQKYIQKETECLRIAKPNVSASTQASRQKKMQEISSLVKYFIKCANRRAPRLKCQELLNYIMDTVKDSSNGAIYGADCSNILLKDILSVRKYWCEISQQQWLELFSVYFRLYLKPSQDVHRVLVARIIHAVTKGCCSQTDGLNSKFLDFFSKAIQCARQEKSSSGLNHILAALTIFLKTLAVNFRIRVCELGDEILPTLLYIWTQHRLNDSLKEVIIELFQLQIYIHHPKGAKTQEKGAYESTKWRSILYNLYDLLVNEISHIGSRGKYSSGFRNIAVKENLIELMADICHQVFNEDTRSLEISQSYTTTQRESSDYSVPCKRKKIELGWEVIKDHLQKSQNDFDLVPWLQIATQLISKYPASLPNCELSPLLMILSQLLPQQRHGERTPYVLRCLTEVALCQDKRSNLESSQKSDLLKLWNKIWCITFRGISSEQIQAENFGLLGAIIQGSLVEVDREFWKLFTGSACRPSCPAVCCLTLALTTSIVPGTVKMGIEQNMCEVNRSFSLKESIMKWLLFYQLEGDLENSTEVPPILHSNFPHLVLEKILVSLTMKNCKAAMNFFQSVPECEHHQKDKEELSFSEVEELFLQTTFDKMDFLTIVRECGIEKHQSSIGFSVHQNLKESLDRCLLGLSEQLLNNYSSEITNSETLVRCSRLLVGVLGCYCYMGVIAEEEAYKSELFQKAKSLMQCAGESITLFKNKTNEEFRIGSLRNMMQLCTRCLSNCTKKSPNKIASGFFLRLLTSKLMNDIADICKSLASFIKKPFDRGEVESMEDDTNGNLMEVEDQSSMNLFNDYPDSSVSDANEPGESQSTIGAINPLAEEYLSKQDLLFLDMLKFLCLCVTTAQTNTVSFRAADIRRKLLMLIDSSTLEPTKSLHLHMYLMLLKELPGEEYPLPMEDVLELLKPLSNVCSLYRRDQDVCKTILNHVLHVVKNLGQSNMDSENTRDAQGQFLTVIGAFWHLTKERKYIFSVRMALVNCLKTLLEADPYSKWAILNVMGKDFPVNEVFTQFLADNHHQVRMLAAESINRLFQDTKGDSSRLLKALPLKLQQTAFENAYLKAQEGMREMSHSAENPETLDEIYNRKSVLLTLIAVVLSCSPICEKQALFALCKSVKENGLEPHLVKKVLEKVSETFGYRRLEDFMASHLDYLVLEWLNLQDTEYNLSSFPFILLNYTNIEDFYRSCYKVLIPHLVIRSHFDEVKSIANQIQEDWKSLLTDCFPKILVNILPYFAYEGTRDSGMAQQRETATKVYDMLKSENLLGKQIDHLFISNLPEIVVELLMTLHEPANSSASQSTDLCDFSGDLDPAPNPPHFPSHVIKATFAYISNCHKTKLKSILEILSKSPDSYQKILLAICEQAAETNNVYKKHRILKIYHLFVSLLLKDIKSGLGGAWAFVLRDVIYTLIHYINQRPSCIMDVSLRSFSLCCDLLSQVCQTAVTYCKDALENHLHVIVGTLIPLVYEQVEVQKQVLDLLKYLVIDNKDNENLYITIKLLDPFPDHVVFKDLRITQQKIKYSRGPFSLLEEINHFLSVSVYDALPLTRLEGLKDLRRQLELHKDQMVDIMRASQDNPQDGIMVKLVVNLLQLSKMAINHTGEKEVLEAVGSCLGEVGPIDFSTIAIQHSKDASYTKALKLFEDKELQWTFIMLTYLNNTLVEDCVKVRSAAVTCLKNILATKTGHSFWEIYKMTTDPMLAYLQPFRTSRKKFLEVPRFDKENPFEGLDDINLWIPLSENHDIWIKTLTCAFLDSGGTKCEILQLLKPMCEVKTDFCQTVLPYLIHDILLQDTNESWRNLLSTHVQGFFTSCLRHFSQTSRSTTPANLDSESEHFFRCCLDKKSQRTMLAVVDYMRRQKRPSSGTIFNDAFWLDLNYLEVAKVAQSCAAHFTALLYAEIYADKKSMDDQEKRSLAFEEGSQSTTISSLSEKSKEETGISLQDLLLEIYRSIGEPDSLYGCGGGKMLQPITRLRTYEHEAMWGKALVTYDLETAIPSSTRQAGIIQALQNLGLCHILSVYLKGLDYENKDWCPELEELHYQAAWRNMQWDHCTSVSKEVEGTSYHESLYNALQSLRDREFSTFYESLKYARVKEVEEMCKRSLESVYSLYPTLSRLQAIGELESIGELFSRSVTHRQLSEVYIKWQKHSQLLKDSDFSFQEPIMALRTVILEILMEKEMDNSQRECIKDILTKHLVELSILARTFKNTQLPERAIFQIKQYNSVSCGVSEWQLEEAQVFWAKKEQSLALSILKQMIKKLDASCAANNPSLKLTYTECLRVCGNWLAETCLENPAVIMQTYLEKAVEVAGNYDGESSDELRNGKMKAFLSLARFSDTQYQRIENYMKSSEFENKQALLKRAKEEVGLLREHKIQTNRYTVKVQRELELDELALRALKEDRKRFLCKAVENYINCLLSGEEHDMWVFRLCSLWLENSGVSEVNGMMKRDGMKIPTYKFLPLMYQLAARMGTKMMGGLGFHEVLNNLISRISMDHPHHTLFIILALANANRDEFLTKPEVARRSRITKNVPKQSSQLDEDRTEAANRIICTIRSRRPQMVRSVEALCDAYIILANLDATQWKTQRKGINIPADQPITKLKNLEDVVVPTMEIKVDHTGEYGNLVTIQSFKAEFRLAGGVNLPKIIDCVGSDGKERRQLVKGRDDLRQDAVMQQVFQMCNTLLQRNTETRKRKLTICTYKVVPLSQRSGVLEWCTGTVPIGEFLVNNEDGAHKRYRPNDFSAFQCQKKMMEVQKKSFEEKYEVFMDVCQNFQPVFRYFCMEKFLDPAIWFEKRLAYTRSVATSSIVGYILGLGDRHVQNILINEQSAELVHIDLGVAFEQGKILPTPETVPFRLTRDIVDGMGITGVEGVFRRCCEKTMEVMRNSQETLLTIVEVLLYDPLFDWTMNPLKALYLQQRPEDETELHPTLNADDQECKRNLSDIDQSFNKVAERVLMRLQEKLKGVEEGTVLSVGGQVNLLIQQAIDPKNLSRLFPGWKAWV

Sp1^S101A: exogenously expressed Sp1 mutant with serine 101 changed to Ala, not phosphorylated in response to damage
Colony survival in response to H2O2 (U2OS cells): failed to rescue

O=c1cc(-c2cccc3c2Sc2ccccc2S3)oc(N2CCOCC2)c1 [KU55933]
ATM phosphorylation at serine 1981 (ATM kinase activity): still phosphorylated
γSp1^101 immunofluorescence signal (ATM kinase activity): lack of γSp1^101
ATM kinase activity (ATM): inhibited
H2O2-induced phosphorylation of Sp1 and H2AX [1]: reduced but not abolished
Phosphorylation of H2AX [2]: diminished
Electromobility shift in Sp1 from the 95 kDa to 105 kDa form ([3]; 200 μM H2O2 for one hour): blocked
Phosphorylation of Sp1 at serine 101 ([3]; 200 μM H2O2 for one hour): abolished
Overall electromobility shift of total Sp1 ([3]; 30 J/m^2 UV for four hours): partial reduction
Phosphorylation of Sp1 at serine 101 ([3]; 30 J/m^2 UV for four hours): abolished

wild-type Sp1: exogenously expressed wild-type Sp1 (SEQ ID NO: 2) with HA-tag, transfected in pFLAG-CMV2
Colony survival in response to H2O2 (U2OS cells): restored survival to the level observed with non-targeting RNAi

OO [H2O2, hydrogen peroxide]
H2O2 concentration at which Sp1 was shifted completely to the 105 kDa form (Sp1 phosphorylation [4]): 25 µM
Time by which the 95 kDa form of Sp1 became the predominant species again (Sp1 phosphorylation [5]; 200 μM H2O2): ≤ 8 h
Time of peak Sp1 phosphorylation (Sp1 phosphorylation [5]; 200 μM H2O2): one hour
Time to first observed Sp1 phosphorylation post-treatment (Sp1 phosphorylation [5]; 200 μM H2O2): 15 min
H2O2 concentration at which 105 kDa becomes the major Sp1 species (Sp1 phosphorylation [5]; one hour exposure): 200 µM
H2O2 concentration at which the Sp1 shift to 105 kDa is detected (Sp1 phosphorylation [5]; one hour exposure): 50 µM

From US8476025B2, “ATM-dependent phosphorylation of Sp1 is involved in the cellular response to DNA damage and enhances cellular survival after DNA damage” (Philadelphia Health and Education Corporation, priority 2007, dated 2013)
